# Assay results reported in patent publication US8183405B2, “Obovatol derivatives or pharmaceutically acceptable salts thereof, preparation method thereof and pharmaceutical composition for the prevention and treatment of cancer containing the same as an active ingredient” (Korea Research Institute of Bioscience and Biotechnology, priority 2008, dated 2012).
# What was measured:
# Solubility (Table 1) = format: physicochemical; settings: for Solubility Insoluble: solvents in which the compound is insoluble; for Solubility Soluble: solvents in which the compound is soluble
# human cancer cell line = assay: Inhibitory effect on growth of cancer cell (WST-1); format: cell-based; settings: for OD: 48 hours, WST-1, absorbance at 450 nm, control OD 0.604
# Method: The compounds prepared in Examples 1, 2 and 3 were evaluated for inhibitory activity against the growth of a human cancer cell line using WST-1. Human cancer cell lines were incubated in 10% fetal bovine serum (FBS)-supplemented media at 37°C. in a 5% CO2 atmosphere, followed by detaching the cells with 0.05% trypsin-EDTA.
# Cells were plated onto […] at a density of 4,000 cells (A549, MDA-MB-231), 5,000 cells (HEK293, NCI-H23) or 6,000 cells (HCA-7, HCT116, SW620, DU145) per well, which were counted using a hematocytometer.
# After incubation in 10% FBS-supplemented media at 37°C. for 24 hours in a 5% CO2 incubator, the media was changed with fresh media containing a control (0.1% DMSO) or the compound of Example 1 in an amount of 5, 10, 15, 20, 25 or 30 μg/ml (dissolved in DMSO and diluted in the medium). After 48 hours of treatment, WST-1 (Roche) was added in an amount of 10 μl to each well and incubated for 2 hrs. Absorbance at 450 nm was read in an ELISA reader (Bio-Rad).
# [1] = test system: colorectal cancer cells (SW620); assay: Apoptotic effect on cancer cells (annexin V-FITC/PI FACS); format: cell-based, human; settings: 50 μM, 48 hours, 14.12% at pre-treatment
# Method: Apoptosis was analyzed using flow cytometry. First, colorectal cancer cells (SW620) were treated with 0.1% DMSO (negative control), 0 μM, 30 μM or 50 μM of the compound of Example 1 for 48 hours and detached with 0.05% trypsin-EDTA. After being harvested through centrifugation, the cells were washed twice with PBS (phosphate-buffered saline) and suspended at a density of 1×10^6 cells/ml in a 1× binding buffer (10 mM Hepes/NaOH, pH 7.4, 140 mM NaCl, and 2.5 mM CaCl2). 100 μl of the cell suspension was transferred into a 5 ml culture tube, mixed with 5 μl of annexin V-FITC and 10 μl of PI (propidium iodide), and incubated at room temperature for 15 min in a light-tight condition. Then, 400 μl of 1×binding buffer was added to each tube, followed by FACS analysis for annexin V-FITC-stained cells (Moussa Alkhalaf, Abdulla El-Mowafy, Waleed Renno, Ousama Rachid, Ahmed Ali, and Raja Al-Attyiah, Archives of Medical Research 39, 162-168, 2006).
# In FACS plots of FIG. 1, the distribution of stained cells is shown. Cell migration to the second quadrant and the fourth quadrant refers to an increase in chromosome number, meaning an increased number of cells in the G2/M phase or S phase.
# The third quadrant and the fourth quadrant of the FACS plot indicate cells expressing the early apoptosis marker annexin V.
# [2] = Assay for acute oral toxicity in rat; settings: SD, in vivo, 500 mg/kg, oral administration, rats
# Method: Specific pathogen free (SPF) SD rats 6 weeks old were used for this assay. The obovatol derivative prepared in Example 1 or 2 was dissolved in distilled water, and the solution was orally administered at a dose of 500 mg/kg to respective groups of two rats.
# Autopsies were performed to check for abnormalities of the thoracic and abdominal organs with the naked eye.
Structure (SMILES),Solubility Insoluble (Solubility (Table 1)),Solubility Soluble (Solubility (Table 1)),further results
"CCCc1ccc(Oc2cc(CCC)cc(O)c2O)cc1 [Example 1, 3-(4-propylphenoxy)-5-propylbenzene-1,2-diol]",Water,"Alcohol, DMSO",OD (human cancer cell line; 5 μg/ml): 0.592; OD (human cancer cell line; 10 μg/ml): 0.557; OD (human cancer cell line; 15 μg/ml): 0.474; OD (human cancer cell line; 20 μg/ml): 0.247; OD (human cancer cell line; 25 μg/ml): 0.149; OD (human cancer cell line; 30 μg/ml): 0.141; inhibit the growth of cancer cells (human cancer cell line; concentration of 20 μg/ml or higher): ≥ 50%; fraction of the cells migrating to the third quadrant (annexin V) [1]: 59.58%; LD50 [2]: ≥ 500 mg/kg
"C=CCc1ccc(Oc2cc(CC=C)cc(O)c2OC)cc1 [Example 2, 3-(4-allylphenoxy)-5-allyl-2-methoxyphenol]","Hexane, Water","Alcohol, DMSO",LD50 [2]: ≥ 500 mg/kg
"CCCc1ccc(Oc2cc(CCC)cc(O)c2OC)cc1 [Example 5, 3-(4-propylphenoxy)-2-methoxy-5-propylphenol]","Hexane, Water","Alcohol, DMSO",–
"C/C=C/c1ccc(Oc2cc(/C=C/C)cc(O)c2O)cc1 [Example 8, 3-(4-((E)-prop-1-enyl)phenoxy)-5-((E)-prop-1-enyl)benzene-1,2-diol]",Water,"Alcohol, DMSO",–
"C/C=C/c1ccc(Oc2cc(/C=C/C)cc(OC(=O)COC)c2OC(=O)COC)cc1 [Example 10, 1-(4-((E)-prop-1-enyl)phenoxy)-2,3-di-2-methoxyacetyloxy-5-((E)-prop-1-enyl)benzene]",Water,"Alcohol, DMSO",–

# The next lines start with results.
Solubility Insoluble (Solubility (Table 1)),Solubility Soluble (Solubility (Table 1)),Structure (SMILES),further results
"Hexane, Water","Alcohol, DMSO","C=CCc1ccc(Oc2cc(CC=C)cc(OC(C)=O)c2OC(C)=O)cc1 [Example 3, 1-(4-allylphenoxy)-5-allyl-2,3-diacetyloxybenzene]",–
"Hexane, Water","Alcohol, DMSO","C=CCc1ccc(Oc2cc(CC=C)cc(OC(=O)COC)c2OC(=O)COC)cc1 [Example 4, 1-(4-allylphenoxy)-5-allyl-2,3-di-2-methoxyacetyloxybenzene]",–
Water,"Alcohol, DMSO","CCCc1ccc(Oc2cc(CCC)cc(OC(C)=O)c2OC(C)=O)cc1 [Example 6, 1-(4-propylphenoxy)-2,3-diacetyloxy-5-propylbenzene]",–
Water,"Alcohol, DMSO","CCCc1ccc(Oc2cc(CCC)cc(OC(=O)COC)c2OC(=O)COC)cc1 [Example 7, 1-(4-propylphenoxy)-2,3-di-2-methoxyacetyloxy-5-propylbenzene]",–
Water,"Alcohol, DMSO","C/C=C/c1ccc(Oc2cc(/C=C/C)cc(OC(C)=O)c2OC(C)=O)cc1 [Example 9, 1-(4-((E)-prop-1-enyl)phenoxy)-2,3-diacetyloxy-5-((E)-prop-1-enyl) benzene]",–
